Laboratory results taken from patent US20230117034A1, “PYRAZOLOTRIAZINES” (Bayer Aktiengesellschaft, priority 2019, published 2023).
pIC50: −log10 of the molar value.

Tests used:
[1] = biological target: T1, CDK2/CycE (Homo sapiens, UniProt P24941); assay: CDK2/CycE kinase assay (TR-FRET, 2 mM ATP); type: biochemical; conditions: 2 mM ATP (high ATP); median; read-out: CDK2/CyclinE, 2 mM ATP (high ATP), IC50 (median)
T1 construct: purchased ProQinase GmbH (Freiburg, Germany); host or cells: insect cells (Sf9)
In short: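 Biotin-peptide phosphorylation (0.75 µM substrate, 2 mM ATP final, 25 min, 22 °C) by Sf9-expressed GST-CDK2/GST-CycE, after a 15-min compound pre-binding step. Inhibition scaled between enzyme-free (100%) and uninhibited (0%) wells.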

[2] = biological target: T2, CDK12 protein level in CAL-120 breast cancer cells (Homo sapiens, UniProt Q9NYV4); assay: CDK12 protein level: Protein Simple (CDK12, CAL-120); type: cell-based; conditions: CAL-120 cells, 18 h with compound, CDK12/HSP90 peak area ratio vs vehicle, median, read-out: CDK12 protein level in CAL-120 breast ca cells, DC50-[mol/l] (median)
T2 construct: endogenous in cells; host or cells: CAL-120 human breast cancer cells (DSMZ ACC 459)
T2 sequence (Q9NYV4 whole entry): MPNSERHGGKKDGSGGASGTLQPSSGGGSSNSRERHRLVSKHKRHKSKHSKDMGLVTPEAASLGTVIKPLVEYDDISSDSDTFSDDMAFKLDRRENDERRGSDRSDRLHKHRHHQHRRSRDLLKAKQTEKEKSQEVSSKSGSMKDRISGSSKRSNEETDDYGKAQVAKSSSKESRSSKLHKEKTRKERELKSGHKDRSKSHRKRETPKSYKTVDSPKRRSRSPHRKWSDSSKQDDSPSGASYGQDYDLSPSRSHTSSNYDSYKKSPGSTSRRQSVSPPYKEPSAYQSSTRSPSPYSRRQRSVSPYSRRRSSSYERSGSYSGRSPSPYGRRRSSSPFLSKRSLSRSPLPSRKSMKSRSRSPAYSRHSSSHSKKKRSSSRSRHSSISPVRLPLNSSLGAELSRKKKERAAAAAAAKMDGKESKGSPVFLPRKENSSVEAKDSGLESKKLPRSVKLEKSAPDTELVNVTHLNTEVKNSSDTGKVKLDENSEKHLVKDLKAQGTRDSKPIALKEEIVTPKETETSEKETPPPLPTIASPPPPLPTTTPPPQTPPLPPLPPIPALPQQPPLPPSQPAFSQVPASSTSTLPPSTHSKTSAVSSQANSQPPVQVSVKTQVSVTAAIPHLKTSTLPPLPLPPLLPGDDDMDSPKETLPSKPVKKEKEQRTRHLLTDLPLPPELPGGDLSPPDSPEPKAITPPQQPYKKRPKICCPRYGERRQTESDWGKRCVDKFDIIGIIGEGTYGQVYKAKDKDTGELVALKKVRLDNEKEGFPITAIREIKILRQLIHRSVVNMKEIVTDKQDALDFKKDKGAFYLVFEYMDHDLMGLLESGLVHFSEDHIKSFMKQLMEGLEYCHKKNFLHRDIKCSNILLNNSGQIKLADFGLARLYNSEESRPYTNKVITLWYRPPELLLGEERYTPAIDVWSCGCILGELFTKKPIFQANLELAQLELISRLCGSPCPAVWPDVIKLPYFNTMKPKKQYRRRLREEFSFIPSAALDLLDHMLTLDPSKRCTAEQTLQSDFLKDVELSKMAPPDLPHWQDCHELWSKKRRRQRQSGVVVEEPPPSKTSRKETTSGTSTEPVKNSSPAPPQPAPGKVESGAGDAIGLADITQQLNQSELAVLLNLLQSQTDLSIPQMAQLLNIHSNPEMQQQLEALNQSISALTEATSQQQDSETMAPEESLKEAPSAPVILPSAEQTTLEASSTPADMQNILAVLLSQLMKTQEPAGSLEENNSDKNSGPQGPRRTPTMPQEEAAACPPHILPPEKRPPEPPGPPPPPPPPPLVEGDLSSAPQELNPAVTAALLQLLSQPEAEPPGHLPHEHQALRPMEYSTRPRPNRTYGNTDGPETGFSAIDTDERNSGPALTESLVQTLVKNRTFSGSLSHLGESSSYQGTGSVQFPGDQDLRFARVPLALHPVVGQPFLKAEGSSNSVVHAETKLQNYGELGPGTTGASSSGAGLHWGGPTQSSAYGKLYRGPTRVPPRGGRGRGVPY
T2 sequence (O75909 whole entry partner): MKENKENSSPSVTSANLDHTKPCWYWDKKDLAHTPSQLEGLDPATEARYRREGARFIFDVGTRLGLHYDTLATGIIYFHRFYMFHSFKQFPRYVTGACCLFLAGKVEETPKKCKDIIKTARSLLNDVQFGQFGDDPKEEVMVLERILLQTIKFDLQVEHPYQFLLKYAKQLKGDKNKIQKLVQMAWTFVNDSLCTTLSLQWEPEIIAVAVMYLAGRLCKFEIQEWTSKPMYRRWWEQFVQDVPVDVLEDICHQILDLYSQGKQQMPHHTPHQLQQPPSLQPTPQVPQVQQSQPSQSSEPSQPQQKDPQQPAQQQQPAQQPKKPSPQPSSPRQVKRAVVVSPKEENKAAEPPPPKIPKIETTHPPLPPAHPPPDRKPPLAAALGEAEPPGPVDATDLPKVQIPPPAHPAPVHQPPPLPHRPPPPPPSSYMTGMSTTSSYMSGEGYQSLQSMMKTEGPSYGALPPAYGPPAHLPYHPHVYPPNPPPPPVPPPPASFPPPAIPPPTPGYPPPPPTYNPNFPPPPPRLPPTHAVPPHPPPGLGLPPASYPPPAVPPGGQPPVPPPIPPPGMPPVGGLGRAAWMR
Protocol: CAL-120 human breast cancer cells (DSMZ ACC 459) were seeded at 300,000 cells/well in 6-well plates containing 2 mL of growth medium (DMEM, 10% FCS, glutamine) and incubated for 24 h at 37° C. in an humidified incubator. Test compounds were added at various concentrations, control wells received solvent (DMSO), and the plates were incubated for another 18 h at 37° C. Cells were washed 2 times with PBS and lysed in 75 microL lysis buffer (MSD-Puffer (MSD, #R60TX-2), +1% 505S+PhosSTOP (Roche #04906837001)+complete mini (Roche #04693159001)) by scraping. The lysates were pushed 2 times through Qiashedders followed by centrifugation at 14,000 rpm for 30-50 sec. The supernatant was stored at −20° C. Proteins were separated by applying 0.4 microgramms of protein lysate to Protein Simple 66-440 kDa (Protein Simple #SM-S002) size assay columns on a PEGGY SUE or SALLY SUE equipment according to the supplier's manual. CDK12 and HSP90 (loading control) were detected using anti-human CDK12 antibody (Cell Signaling Technologies (CST) #11793) at 1:25 dilution and anti-human HSP90 antibody (CST #4877) at 1:5,000 dilution. CDK12 and HSP90 peak areas were determined using Protein Simple Compass software. Ratio of CDK12/HSP90 peak areas were calculated for each sample, and […] values (degrading concentration to achieve 50% reduction relative to vehicle treated control) were determined by means of a 4 parameter fit.

[3] = system: BRCA1 mRNA expression in CAL-120 cells; assay: qRT-PCR assay: BRCA1 mRNA expression in CAL-120; type: cell-based; conditions: Homo sapiens; Inhibition of BRCA1 mRNA expression in CAL-120 cells; median; read-out: RTqPCR-CAL-120, IC50, BRCA1 (median)
Protocol: 3. qRT-PCR Assay: BRCA, ATR, MCL1 in MDA-MB-231, CAL-120
Tissue cultured human MDA-MB-231 human breast cancer cells were plated in 500 microL per well at 200,000 cells/well in a 24 well microtiter plate. After 24 h, the cells were exposed continuously for 24 h to test substances (substances were added with Tecan HP 0300 Dispenser). RNA was prepared using Qiagen RNeasy MiniKit (#74106), RNA was quantified using a NanoDrop Equipment, and 600 nano gamms of RNA was coverted to cDNA using a SuperScript VILO kit (Thermofisher #11755050) followed by qPCR amplification. BRCA1 and ATR gene expression was measured by RT-qPCR and normalised to GAPDH housekeeping gene expression. qPCR primer sets have been purchased from Thermo Fisher Scientific/Applied Biosystems: BRCA1, #Hs 01556193; ATR, #Hs 00992123; GAPDH, #Hs 03929097.

Row | pIC50 [1] | DC50 [2] [µM] | pIC50 [3] | SMILES
1 | 4.88 | 0.00104 | – | C[C@H]1CN(c2nc(NCc3nc4ccccc4[nH]3)n3ncc(Br)c3n2)CCN1 [Example 169, N-[(1H-benzimidazol-2-yl)methyl]-8-bromo-2-[(3S)-3-methylpiperazin-1-yl]pyrazolo[1,5-a][1,3,5]triazin-4-amine]
2 | 5.19 | 0.00298 | 7.53 | Clc1cnn2c(NCc3nc4ccccc4[nH]3)nc(N3CCOCC3)nc12 [Example 15, N-[(1H-benzimidazol-2-yl)methyl]-8-chloro-2-(morpholin-4-yl)pyrazolo[1,5-a][1,3,5]triazin-4-amine]
3 | < 4.70 | 0.00938 | – | CC(C)c1cnn2c(NCc3nc4ccccc4[nH]3)nc(Nc3ccncc3)nc12 [Example 14, N^4-[(1H-benzimidazol-2-yl)methyl]-8-(propan-2-yl)-N^2-(pyridin-4-yl)pyrazolo[1,5-a][1,3,5]triazine-2,4-diamine]
4 | 5.82 | 0.0581 | – | OC1CCCN(c2nc(NCc3nc4ccccc4[nH]3)n3ncc(Br)c3n2)C1 (racemic) [Example 16, (rac)-1-(4-{[(1H-benzimidazol-2-yl)methyl]amino}-8-bromopyrazolo[1,5-a][1,3,5]triazin-2-yl)piperidin-3-ol]
5 | < 4.70 | 0.000307 | – | Fc1ccc2[nH]c(CNc3nc(N4CCNCC4)nc4c(C5CC5)cnn34)nc2c1 [Example 190, 8-cyclopropyl-N-[(5-fluoro-1H-benzimidazol-2-yl)methyl]-2-(piperazin-1-yl)pyrazolo[1,5-a][1,3,5]triazin-4-amine]
6 | < 4.70 | – | – | Fc1ccc2[nH]c(CNc3nc(N4C[C@@H]5CCCN[C@@H]5C4)nc4c(C5CC5)cnn34)nc2c1 [Example 180, 8-cyclopropyl-N-[(5-fluoro-1H-benzimidazol-2-yl)methyl]-2-[(4aS, 7aS)-octahydro-6H-pyrrolo[3,4-b]pyridin-6-yl]pyrazolo[1,5-a][1,3,5]triazin-4-amine]
7 | 5.11 | – | – | O[C@H]1CCN(c2nc(NCc3nc4ccccc4[nH]3)n3ncc(Br)c3n2)C1 [Example 224, (3S)-1-(4-{[(1H-benzimidazol-2-yl)methyl]amino}-8-bromopyrazolo[1,5-a][1,3,5]triazin-2-yl)pyrrolidin-3-ol]
8 | 4.84 | – | – | CO[C@@H]1CCN(c2nc(NCc3nc4ccccc4[nH]3)n3ncc(Br)c3n2)C1 [Example 223, N-[(1H-benzimidazol-2-yl)methyl]-8-bromo-2-[(3R)-3-methoxypyrrolidin-1-yl]pyrazolo[1,5-a][1,3,5]triazin-4-amine]
9 | 4.92 | 0.00729 | – | FC(F)(F)c1cnn2c(NCc3nc4ccccc4[nH]3)nc(N3CCOCC3)nc12 [Example 241, N-[(1H-benzimidazol-2-yl)methyl]-2-(morpholin-4-yl)-8-(trifluoromethyl) pyrazolo[1,5-a][1,3,5]triazin-4-amine]
10 | 4.82 | – | – | CC1(C)CN(c2nc(NCc3nc4ccccc4[nH]3)n3ncc(Br)c3n2)CCN1 [Example 216, N-[(1H-benzimidazol-2-yl)methyl]-8-bromo-2-(3,3-dimethylpiperazin-1-yl)pyrazolo[1,5-a][1,3,5]triazin-4-amine]
11 | < 4.70 | – | – | CN1CCN(c2nc(NCc3nc4ccccc4[nH]3)n3ncc(-c4ccncc4)c3n2)CC1 [Example 242, N-[(1H-benzimidazol-2-yl)methyl]-2-(4-methylpiperazin-1-yl)-8-(pyridin-4-yl)pyrazolo[1,5-a][1,3,5]triazin-4-amine]
12 | 5.04 | – | – | OCCNc1nc(NCc2nc3ccccc3[nH]2)n2ncc(Br)c2n1 [Example 228, 2-[(4-{[(1H-benzimidazol-2-yl)methyl]amino}-8-bromopyrazolo[1,5-a][1,3,5]triazin-2-yl)amino]ethan-1-ol]
13 | < 4.70 | – | – | C[C@@H]1CN(c2nc(NCc3nc4c(F)c(F)ccc4[nH]3)n3ncc(C4CC4)c3n2)C[C@H](C)N1 [Example 170, 8-cyclopropyl-N-[(4,5-difluoro-1H-benzimidazol-2-yl)methyl]-2-[(3R,5S)-3,5-dimethylpiperazin-1-yl]pyrazolo[1,5-a][1,3,5]triazin-4-amine]
14 | 5.27 | – | – | CCN(C)c1nc(NCc2nc3ccccc3[nH]2)n2ncc(Br)c2n1 [Example 233, N4-(1H-benzimidazol-2-ylmethyl)-8-bromo-N2-ethyl-N2-methyl-pyrazolo[1,5-a][1,3,5]triazine-2,4-diamine]
15 | < 4.70 | – | – | CN(C)C1CCN(c2nc(NCc3nc4ccccc4[nH]3)n3ncc(Br)c3n2)CC1 [Example 201, N-[(1H-benzimidazol-2-yl)methyl]-8-bromo-2-[4-(dimethylamino)piperidin-1-yl]pyrazolo[1,5-a][1,3,5]triazin-4-amine]
16 | 5.84 | – | – | CC(C)(O)CNc1nc(NCc2nc3ccccc3[nH]2)n2ncc(Br)c2n1 [Example 229, 1-[(4-{[(1H-benzimidazol-2-yl)methyl]amino}-8-bromopyrazolo[1,5-a][1,3,5]triazin-2-yl)amino]-2-methylpropan-2-ol]
17 | < 4.70 | – | – | CN(C)[C@@H]1CCN(c2nc(NCc3nc4ccccc4[nH]3)n3ncc(Br)c3n2)C1 [Example 178, N-[(1H-benzimidazol-2-yl)methyl]-8-bromo-2-[(3R)-3-(dimethylamino)pyrrolidin-1-yl]pyrazolo[1,5-a][1,3,5]triazin-4-amine]
18 | < 4.70 | – | – | CN1CC[C@H]2CN(c3nc(NCc4nc5ccccc5[nH]4)n4ncc(Br)c4n3)C[C@H]21 [Example 179, N-[(1H-benzimidazol-2-yl)methyl]-8-bromo-2-[(3aS,6aS)-1-methylhexahydropyrrolo[3,4-b]pyrrol-5 (1H)-yl]pyrazolo[1,5-a][1,3,5]triazin-4-amine]
19 | 5.38 | – | – | Cc1ccc2[nH]c(CNc3nc(N4C[C@H]5C[C@@H]4CO5)nc4c(Br)cnn34)nc2c1 [Example 192, 8-bromo-N-[(5-methyl-1H-benzimidazol-2-yl)methyl]-2-[(1R,4R)-2-oxa-5-azabicyclo[2.2.1]heptan-5-yl]pyrazolo[1,5-a][1,3,5]triazin-4-amine]
